# Values of other authors as cited in patent US20020019373A1, “Combinations of bisphosphonates and estrogenic agents” (American Home Products Corporation, priority 2000, published 2002).
# System: Paget's disease of the bone
# Conditions: approved by the FDA for Paget's disease of the bone (30-mg tablets)
compound,measurement,value
O=P(O)(O)C(O)(Cc1cccnc1)P(=O)(O)O [Risedronate],effectiveness in clinical trials,effective
